Test results reported in patent US6627732B1, “Glutathione derivatives and their dosage forms” (Teijin Limited, priority 1998, dated 2003).

Assays:
[1] = Intravenous administration of high dosages, local reaction; assay type: in vivo; settings: high dosages administered intravenously
[2] = Dialysis of fat emulsion in aqueous glycerin, content of glutathione derivative retained (Example 23); assay type: physicochemical; settings: 2 mg/ml fat emulsion, dialysis 2 days at room temperature in 2.3 (w/v)% glycerin, 1.2 μm filter; uncorrected for volume increase
Experimental: The glutathione derivative combined with a fat emulsion was dialyzed in an aqueous solution of glycerin to compare changes in the content of the glutathione derivative in the fat emulsion.
Thereupon, the concentration of the glutathione derivative in the fat emulsion was adjusted to 2 mg/ml.
(2) These fat emulsions (14 ml) were dialyzed in 1 liter of a 2.3 (w/v)% aqueous solution of glycerin. Dialysis was carried out at room temperature for 2 days with one change of the aqueous glycerin solution during the dialysis. All the fat emulsions after dialysis were about 15.6 ml. They were filtered by a 1.2 μm filter and the content of the glutathione derivative was measured.

[3] = Fat emulsion: particle distribution and content after 1.2 μm filtration (Examples 17, 18); assay type: physicochemical; settings: final concentration about 1 mg/ml
Experimental: Preparation of the fat emulsion having as an active ingredient the glutathione derivative of Example 4 was carried out using a high-pressure injection type homogenizer.
(1) The high-pressure injection type homogenizer used was Nanomizer LA from Nanomizer K.K. Purified yolk lecithin, purified soybean oil, and glycerin used were those that can be intravenously injected.
(2) Purified yolk lecithin 6 g and purified soybean oil 55 g were mixed by a mixer while heating to homogeneity. To this was added 560 mg of the glutathione derivative of Example 4 and was further stirred to homogeneity. A suitable amount of glycerin and water for injection were added and rough-emulsified by a mixer, and pH was adjusted to 7.4 with an aqueous solution of sodium hydroxide. Water was further added to a total amount of 560 g, which was pure-emulsified using the Nanomizer LA at an emulsification pressure of 550 kgf/cm^2 by passing it through the emulsion part for 11 times. […]
When the emulsion was crushed with tetrahydrofuran before and after filtration with a 1.2 μm filter and the content of the glutathione derivative of Example 4 was measured by HPLC, it was confirmed that the content of 90% or more of that before filtration was retained, homogeneity was good, and the glutathione derivative of Example 4 was stably mixed in the oil phase emulsion particles. […]

TNFα = assay: Plasma level of TNFα in normal healthy rats (ELISA); assay type: in vivo, rat; settings: fat emulsion 20 mg/kg-body weight/day, days 3, 5 and 7
Source text: , plasma obtained form the EDTA-2K-treated blood on days 3, 5, and 7 of the experiment was used to determine plasma levels of interleukin 1β (hereinafter referred to as IL-1β) and tumor necrosis factor (hereinafter referred to as TNFα). For the determination, the rat IL-1β-ELISA system (manufactured by Amersham Pharmacia Biotek Co., Ltd.), the rat TNFα-ELISA system (manufactured by Amersham Pharmacia Biotek Co., Ltd.), and the BioRad microplate reader (MODEL550, Nippon BioRad laboratories, Co., Ltd.).

normal healthy rats = assay: Neutrophil counts and bone marrow cells in normal healthy rats (Example 28); assay type: in vivo, rat
Experimental: The effects of increasing neutrophil counts of the compound of Example 4 in normal healthy rats were studied.
(1) Male SD rats, 6-week old, purchased from Nippon SLC were used. The animal feed (MF, manufactured by Oriental Yeast Co., Ltd.) and drinking water (well water treated with 0.4±0.2 ppm hypochlorous acid) were given ad libitum during the period of the experiment. The animals were each housed in a hanging-type rat cage (manufactured by Nippon Cage K.K.) and kept at a temperature of 24±2° C. and a humidity of 55±5%.
(2) The glutathione derivative of Example 4 combined with the fat emulsion at 10, 20, or 30 mg/kg-body weight/day, and the fat emulsion alone as the negative control were each repeatedly administered into the tail vein for 6 days from day 1 to 6 of the experiment. Dosage was 10 ml/kg-body weight/day. From day 1 to 10 of the experiment, blood was drawn everyday from the jugular vein and the EDTA-2K-treated blood was obtained. Then the blood was used to determine the neutrophil counts using a general chemistry test instrument (Technicon H-1E, manufactured by Bayer-Sankyo K.K.).
Part of the negative control group on days 1, 7, and 10, and part of the Example 4—the fat emulsion 30 mg/kg-body weight/day administration group on days 3, 5, 7, and 10 of the experiment were bled to death from the abdominal aorta under anesthesia by the intraperitoneal administration of pentobarbital sodium. Then, the femoral bone marrow was harvested, smears were prepared therefrom using the wedge method, stained by the May-Giemsa stain, and examined under a microscope to determine the fractionation of nucleated bone marrow cells.

HL-60 cells = assay: HL-60 cell differentiation induction, NBT reducing activity, DMSO as solvent (Example 21); assay type: cell-based, human
Source text: In a manner similar to that in Example 20, the in vitro activity of the glutathione derivatives of Examples 4, 5, and 8, and Comparative Example 3 were compared.
(1) The differences from Example 20 were: First, since the glutathione derivatives of Examples and Comparative Examples used dimethyl sulfoxide (DMSO) as the solvent because of the solubility of the compounds, the system contained 0.1-0.3 (v/v)% DMSO instead of ethanol. […] This caused slight differences in the sensitivity in the test results of the glutathione derivative of Example 4. Furthermore, in Example 21, the differentiation induction on HL-60 cells into granulocytic cells in the coexistence of 9-cis-RA was only evaluated.

CCOC(=O)[C@@H](N)CCC(=O)N[C@@H](CSCc1ccccc1)C(=O)N[C@@H](C(=O)OCC)c1ccccc1.Cl [Comparative Example 1, Glu(Cys(Bzl)-D-Phg-O(Et))-O(Et)hydrochloride, reference compound]
Local reaction at the site of administration [1]: can cause inflammation at the site of administration
Content of the glutathione derivative in the fat emulsion after dialysis, of the initial feed [2]: 14.0%

CCCCCCCCCCCCCCCCOC(=O)[C@@H](N)CCC(=O)N[C@@H](CSCc1ccccc1)C(=O)N[C@@H](C(=O)OCC)c1ccccc1.Cl [Example 4, Glu(Cys(Bzl)-D-Phg-OEt)-O(Hexadecyl)hydrochloride]
Content after filtration with a 1.2 μm filter ([3]; alcohol solution mixed with water for injection): ≤ 75%
Behaviour on mixing alcohol solution with water for injection [3]: immediately crystallized
Plasma level of TNFα relative to the negative control group (TNFα): No increases
Neutrophil counts in the peripheral blood relative to the negative control group (normal healthy rats; fat emulsion 30 mg/kg-body weight/day iv, days 1-6, days 2 and 5-8, significance 5%-1%): statistically significant increase in the neutrophil counts
Neutrophilic myelocytic cells having the dividing ability in bone marrow (normal healthy rats; fat emulsion 30 mg/kg-body weight/day, days 3 and 5): increased
Neutrophilic myelocytic cells having no dividing ability in bone marrow (normal healthy rats; fat emulsion 30 mg/kg-body weight/day, maximum on day 7): increases were observed on day 5, 7, and 10
Differentiation induction activity compared with Comparative Example 3 (HL-60 cells; HL-60, coexistence of 9-cis-RA): activity higher than that of Comparative Example 3
Ratio of NBT reduction activity-positive cells (HL-60 cells; compound 3 × 10^−6 M in DMSO, Solvent control (EtOH - 0.1%)): 0.6%
Ratio of NBT reduction activity-positive cells (HL-60 cells; compound 3 × 10^−6 M in DMSO, with 9-cis-RA (5 × 10^−9 M)): 29.9%
Ratio of NBT reduction activity-positive cells (HL-60 cells; compound 3 × 10^−7 M in DMSO, Solvent control (EtOH - 0.1%)): 0.9%
Ratio of NBT reduction activity-positive cells (HL-60 cells; compound 3 × 10^−7 M in DMSO, with 9-cis-RA (5 × 10^−9 M)): 11.0%
Ratio of NBT reduction activity-positive cells (HL-60 cells; compound 3 × 10^−8 M in DMSO, Solvent control (EtOH - 0.1%)): 0.7%
Ratio of NBT reduction activity-positive cells (HL-60 cells; compound 3 × 10^−8 M in DMSO, with 9-cis-RA (5 × 10^−9 M)): 3.1%
Ratio of NBT reduction activity-positive cells (HL-60 cells; compound 10^−6 M in DMSO, Solvent control (EtOH - 0.1%)): 0.3%
Ratio of NBT reduction activity-positive cells (HL-60 cells; compound 10^−6 M in DMSO, with 9-cis-RA (5 × 10^−9 M)): 21.2%
Ratio of NBT reduction activity-positive cells (HL-60 cells; compound 10^−7 M in DMSO, Solvent control (EtOH - 0.1%)): 0.7%
Ratio of NBT reduction activity-positive cells (HL-60 cells; compound 10^−7 M in DMSO, with 9-cis-RA (5 × 10^−9 M)): 5.6%
Ratio of NBT reduction activity-positive cells (HL-60 cells; compound 10^−8 M in DMSO, Solvent control (EtOH - 0.1%)): 0.6%
Ratio of NBT reduction activity-positive cells (HL-60 cells; compound 10^−8 M in DMSO, with 9-cis-RA (5 × 10^−9 M)): 2.5%
